Target: T1, human chemokine receptor 2 isoform B (Homo sapiens, UniProt P41597)
T1 construct: host or cells: CHOK1-CCR2B-A5 (CHO-K1)
T1 sequence (P41597 1-360 isoform P41597-2): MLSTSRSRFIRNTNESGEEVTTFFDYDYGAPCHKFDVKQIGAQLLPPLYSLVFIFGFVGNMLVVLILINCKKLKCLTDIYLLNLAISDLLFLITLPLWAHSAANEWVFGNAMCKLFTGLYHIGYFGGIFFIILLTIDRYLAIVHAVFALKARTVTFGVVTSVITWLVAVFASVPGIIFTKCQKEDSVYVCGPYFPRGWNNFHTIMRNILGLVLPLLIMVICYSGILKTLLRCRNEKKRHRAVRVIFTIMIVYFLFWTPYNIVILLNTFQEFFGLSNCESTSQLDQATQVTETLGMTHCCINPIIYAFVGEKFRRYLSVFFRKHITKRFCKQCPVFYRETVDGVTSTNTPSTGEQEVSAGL
Assay: Calcium mobilization assay (FLIPR, CHOK1-CCR2B-A5 cells, 20 nM MCP-1)
Type: cell-based
Conditions: Ca mobilisation assay, CCR2, antagonist activity vs 20 nM MCP-1
Method in brief: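 Antagonism read as IC50 against 20 nM MCP-1-evoked calcium rise (peak minus baseline Fluo-4 signal, FLIPR) in CCR2B-overexpressing CHO-K1 cells. Compounds were preincubated 20-30 min at 30 °C, with agonist activity recorded for 80 s on addition.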

Row | Compound | IC50
1 | O=C(/C=C/c1ccc(Cl)c(Cl)c1)N1CCC(=O)N(CC(O)CN2CCC(CO)CC2)CC1 (racemic) [Example 291, (rac)-(1-[(E)-3-(3,4-Dichloro-phenyl)-acryloyl]-4-[2-hydroxy-3-(4-hydroxymethyl-piperidin-1-yl)-propyl]-[1,4]diazepan-5-one] | 404 nM
2 | CC(C)CN1CCN(CC(O)CN2CCN(C(=O)C=Cc3ccc(Cl)c(Cl)c3)CCC2=O)CC1 (racemic) [Example 325] | 741 nM
3 | CN(C)C1CCN(CCCN2CCN(C(=O)/C=C/c3ccc(Cl)c(Cl)c3)CCC2=O)C1 (racemic) [Example 277, (rac)-1-[(E)-3-(3,4-Dichloro-phenyl)-acryloyl]-4-[3-(3-dimethylamino-pyrollidin-1-yl)-propyl]-[1,4]diazepan-5-one] | 1290 nM
4 | CC1CCCCN1CCN1CCN(C(=O)C=Cc2ccc(Cl)c(Cl)c2)CCC1=O (racemic) [Example 102, (+/−)-1-[(E)-3-(3,4-Dichloro-phenyl)-acryloyl]-4-[3-(2-methyl-piperidin-1-yl)-ethyl]-[1,4]diazepan-5-one] | 1020 nM
5 | O=C(/C=C/c1ccc(Cl)c(Cl)c1)N1CCC(=O)N(CCCNC2CCOCC2)CC1 [Example 63, 1-[(E)-3-(3,4-Dichloro-phenyl)-acryloyl]-4-[3-(tetrahydro-pyran-4-ylamino)-propyl]-[1,4]diazepan-5-one] | 503 nM
6 | O=C(C=Cc1ccc(Cl)c(Cl)c1)N1CCC(=O)N(CCNC2CCCCC2O)CC1 (stereo not shown) [Example 357] | 385 nM
7 | CO[C@@H]1CN(CCCCN2CCN(C(=O)/C=C/c3ccc(Cl)c(Cl)c3)CCC2=O)CC[C@@H]1CO (racemic) [Example 472] | 418 nM
8 | O=C(/C=C/c1ccc(Cl)c(Cl)c1)N1CCC(=O)N(CC(O)CN2CCC(O)C3(CC3)C2)CC1 (racemic) [Example 317] | 528 nM
9 | C[C@@H]1C[C@H](O)CN(CC(O)CN2CCN(C(=O)/C=C/c3ccc(F)c(F)c3)CCC2=O)C1 (mixture of isomers) [Example 504] | 316 nM

The remaining compounds from weak to strong by IC50, led by results:

Row | IC50 | Compound
10 | 315 nM | O=C1CC2(CCN(CCCN3CCN(C(=O)/C=C/c4ccc(Cl)c(Cl)c4)CCC3=O)CC2)C(=O)N1 [Example 87, 8-(3-{4-[(E)-3-(3,4-Dichloro-phenyl)-acryloyl]-7-oxo-[1,4]diazepan-1-yl}-propyl)-2,8-diaza-spiro[4.5]decane-1,3-dione]
11 | 297 nM | CCOC(=O)NC1CCN(CCCN2CCN(C(=O)/C=C/c3ccc(Cl)c(Cl)c3)CCC2=O)CC1 [Example 82, [1-(3-{4-[(E)-3-(3,4-Dichloro-phenyl)-acryloyl]-7-oxo-[1,4]diazepan-1-yl}-propyl)-piperidin-4-yl]-carbamic acid ethyl ester]
12 | 246 nM | O=C(/C=C/c1ccc(F)c(Cl)c1)N1CCC(=O)N(CCCCN2CCCCC2)CC1 [Example 382]
13 | 243 nM | CC1C(O)CCCN1CCCN1CCN(C(=O)C=Cc2ccc(Cl)c(Cl)c2)CCC1=O (mixture of isomers) [Example 225, (rac,trans)-1-[(E)-3-(3,4-Dichlorophenyl)-acryloyl]-4-[3-(3-hydroxy-2-methyl-piperidin-1-yl)-propyl]-[1,4]diazepan-5-one]
14 | 199 nM | CC1(CO)CCN(CCCCN2CCN(C(=O)C=Cc3ccc(Cl)c(F)c3)CCC2=O)CC1O (stereo not shown) [Example 411]
15 | 91 nM | CC1(O)CCCN(CCCN2CCN(C(=O)/C=C/c3ccc(Cl)c(Cl)c3)CCC2=O)C1 (racemic) [Example 232]
16 | 73 nM | CC1(CO)CCCCN1CC(O)CCN1CCN(C(=O)/C=C/c2ccc(Cl)c(Cl)c2)CCC1=O (racemic) [Example 363]
17 | 20 nM | CC1CCC(O)CN1CCCCN1CCN(C(=O)/C=C/c2ccc(Cl)c(Cl)c2)CCC1=O (racemic) [Example 475]
18 | 16 nM | COCC1CCCN(CCCCN2CCN(C(=O)/C=C/c3ccc(Cl)c(Cl)c3)CCC2=O)C1 (stereo not shown) [Example 423]
19 | 4 nM | CC1(C)CCN(C[C@H](O)CN2CCN(C(=O)/C=C/c3ccc(Cl)c(Cl)c3)CCC2=O)CC1O (stereo partly drawn) [Example 334, 1-[(E)-3-(3,4-Dichloro-phenyl)-acryloyl]-4-[(S)-2-hydroxy-3-(3-hydroxy-4,4-dimethyl-piperidin-1-yl)-propyl]-[1,4]diazepan-5-one]
